Reference: ChEMBL document CHEMBL1132648, “Butenolide endothelin antagonists with improved aqueous solubility” (J Med Chem, 1999)

Settings: buffer, pH 7.4

Aqueous solubility [ng/mL] | Compound
> 250 | COc1ccc(C(=O)/C(Cc2cc(OC)c(OC)c(OCCCC(=O)O)c2)=C(\C(=O)[O-])c2ccc3c(c2)OCO3)cc1.[Na+]
> 125 | COc1ccc(C(=O)/C(Cc2cc(OC)c(OC)c(OC)c2)=C(\C(=O)[O-])c2ccc3c(c2)OCO3)cc1.[Na+] [PD-156707 SODIUM]
< 0.01 | COc1ccc(C2(O)OC(=O)C(c3ccc4c(c3)OCO4)=C2Cc2cc(OC)c(OC)c(OC)c2)cc1 (stereo not drawn) [PD-156707]
